The target of the assay is M2(1-49) channel forming segment of the M2 protein (Influenza A virus, UniProt P0DOF5). The assay is classed as cell-based.
Chain of M2(1-49) channel forming segment of the M2 protein (P0DOF5 1-49 limits assumed): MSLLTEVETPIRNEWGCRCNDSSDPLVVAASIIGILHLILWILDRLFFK

`Cl.NC12CC3CC(CC(C3)C1)C2` [amantadine, 1-aminoadamantane hydrochloride]: the “expression of M2(1-49) protein in SPP culture” value was “the M2(1-49) protein was expressed”. The “rescue of expression of M2(1-49)” value ([…], addition of amantadine) is “rescued”.

The record behind these values is patent publication US8476037B2, “Method for screening of antiviral agents” (priority 2010, dated 2013).
